Measurements from patent US11780805B2, “Carbamoyl phenylalaninol compounds and uses thereof” (AXSOME MALTA LTD., priority 2016, dated 2023).

Legend:
[1] = molecular target: dopamine transporter (DAT) (Homo sapiens, UniProt Q01959); assay: Competitive radioligand binding assay, DAT; settings: compound at 10 μM; radioligand BTCP; cell membrane fractions; read-out: % Inhibition of Binding at Each Transporter or Receptor Target, DAT
Description: (§1) Compound 2 was tested for pharmacological activity in comparison to APC. Eight binding assays were carried out to provide a binding profile for each compound, including binding to dopamine transporter (DAT), norepinephrine transporter (NET), serotonin (5-HT) transporter (SERT), alpha2A adrenergic receptor (Alpha2A), alpha2C adrenergic receptor (Alpha2C), D2S dopamine receptor (D2S), D2L, dopamine receptor (D2L), and vesicular monoamine transporter (VMAT2). Competitive binding assays using a radiolabeled ligand were carried out with each compound at 10 μM. The radioligand for each target was as follows: DAT—BTCP, NET—protriptyline, SERT—imipramine Alpha2A—yohimbine, Alpha2C—yohimbine, D2S—7-OH-DPAT, D2L—butaclamol, VMAT2—tetrabenazine. The source of the receptors and transporters were prepared cell membrane fractions.

[2] = molecular target: serotonin (5-HT) transporter (SERT) (Homo sapiens, UniProt P31645); assay: Competitive radioligand binding assay, SERT; settings: compound at 10 μM; radioligand imipramine; cell membrane fractions; read-out: % Inhibition of Binding at Each Transporter or Receptor Target, SERT
Description: as §1

[3] = molecular target: T1, alpha2A adrenergic receptor (Alpha2A) (Homo sapiens, UniProt P08913); assay: Competitive radioligand binding assay, Alpha2A; settings: compound at 10 μM; radioligand yohimbine; cell membrane fractions; read-out: % Inhibition of Binding at Each Transporter or Receptor Target, Alpha2A
T1 sequence (P08913 1-465): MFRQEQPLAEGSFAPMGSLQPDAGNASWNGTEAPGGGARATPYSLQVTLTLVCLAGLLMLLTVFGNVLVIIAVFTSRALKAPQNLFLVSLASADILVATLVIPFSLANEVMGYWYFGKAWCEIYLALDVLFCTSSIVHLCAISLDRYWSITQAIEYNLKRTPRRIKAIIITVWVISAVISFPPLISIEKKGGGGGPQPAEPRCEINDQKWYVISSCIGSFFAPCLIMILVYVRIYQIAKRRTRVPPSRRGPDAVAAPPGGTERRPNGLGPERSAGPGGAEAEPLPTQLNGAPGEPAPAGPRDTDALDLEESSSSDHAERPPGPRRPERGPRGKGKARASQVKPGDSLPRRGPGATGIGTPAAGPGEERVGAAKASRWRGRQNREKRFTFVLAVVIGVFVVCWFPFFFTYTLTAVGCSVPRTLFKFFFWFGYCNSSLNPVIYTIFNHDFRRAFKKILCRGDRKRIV
Description: as §1

[4] = molecular target: D2L, dopamine receptor (D2L) (Homo sapiens, UniProt P14416); assay: Competitive radioligand binding assay, D2L; settings: compound at 10 μM; radioligand butaclamol; cell membrane fractions; read-out: % Inhibition of Binding at Each Transporter or Receptor Target, D2L
Description: as §1

[5] = molecular target: T2, alpha2C adrenergic receptor (Alpha2C) (Homo sapiens, UniProt P18825); assay: Competitive radioligand binding assay, Alpha2C; settings: compound at 10 μM; radioligand yohimbine; cell membrane fractions; read-out: % Inhibition of Binding at Each Transporter or Receptor Target, Alpha2C
T2 sequence (P18825 1-462): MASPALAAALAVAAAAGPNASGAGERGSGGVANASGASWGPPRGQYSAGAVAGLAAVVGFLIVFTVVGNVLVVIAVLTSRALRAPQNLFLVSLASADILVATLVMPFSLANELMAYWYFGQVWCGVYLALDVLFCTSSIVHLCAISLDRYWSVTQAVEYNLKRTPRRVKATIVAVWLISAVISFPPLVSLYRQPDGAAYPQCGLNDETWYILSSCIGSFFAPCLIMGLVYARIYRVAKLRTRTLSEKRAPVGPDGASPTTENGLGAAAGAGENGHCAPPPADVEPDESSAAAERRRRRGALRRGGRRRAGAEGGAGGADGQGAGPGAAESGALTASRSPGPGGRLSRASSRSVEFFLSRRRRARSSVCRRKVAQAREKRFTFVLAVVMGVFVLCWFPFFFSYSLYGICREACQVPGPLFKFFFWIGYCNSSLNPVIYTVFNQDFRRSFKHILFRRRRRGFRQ
Description: as §1

[6] = molecular target: norepinephrine transporter (NET) (Homo sapiens, UniProt P23975); assay: Competitive radioligand binding assay, NET; settings: compound at 10 μM; radioligand protriptyline; cell membrane fractions; read-out: % Inhibition of Binding at Each Transporter or Receptor Target, NET
Description: as §1

[7] = molecular target: vesicular monoamine transporter (VMAT2) (Homo sapiens, UniProt Q05940); assay: Competitive radioligand binding assay, VMAT2; settings: compound at 10 μM; radioligand tetrabenazine; cell membrane fractions; read-out: % Inhibition of Binding at Each Transporter or Receptor Target, VMAT2
Description: as §1

[8] = molecular target: D2S dopamine receptor (D2S) (Homo sapiens, UniProt P14416); assay: Competitive radioligand binding assay, D2S; settings: compound at 10 μM; radioligand 7-OH-DPAT; cell membrane fractions; read-out: % Inhibition of Binding at Each Transporter or Receptor Target, D2S
Description: as §1

Sequence of D2L, dopamine receptor (D2L) (P14416 whole entry): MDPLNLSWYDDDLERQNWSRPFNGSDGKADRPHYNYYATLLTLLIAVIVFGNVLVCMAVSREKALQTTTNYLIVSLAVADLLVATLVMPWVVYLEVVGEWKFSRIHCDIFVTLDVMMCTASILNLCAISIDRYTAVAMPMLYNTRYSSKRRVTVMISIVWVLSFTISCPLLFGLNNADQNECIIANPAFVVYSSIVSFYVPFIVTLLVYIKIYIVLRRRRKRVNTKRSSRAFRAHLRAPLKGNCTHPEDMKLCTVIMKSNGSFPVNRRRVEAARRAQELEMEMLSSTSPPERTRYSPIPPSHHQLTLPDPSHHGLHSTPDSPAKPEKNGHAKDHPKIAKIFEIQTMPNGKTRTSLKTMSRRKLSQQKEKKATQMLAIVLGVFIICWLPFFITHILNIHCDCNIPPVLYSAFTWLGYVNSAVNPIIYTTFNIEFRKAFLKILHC
Sequence of vesicular monoamine transporter (VMAT2) (Q05940 whole entry, species assumed): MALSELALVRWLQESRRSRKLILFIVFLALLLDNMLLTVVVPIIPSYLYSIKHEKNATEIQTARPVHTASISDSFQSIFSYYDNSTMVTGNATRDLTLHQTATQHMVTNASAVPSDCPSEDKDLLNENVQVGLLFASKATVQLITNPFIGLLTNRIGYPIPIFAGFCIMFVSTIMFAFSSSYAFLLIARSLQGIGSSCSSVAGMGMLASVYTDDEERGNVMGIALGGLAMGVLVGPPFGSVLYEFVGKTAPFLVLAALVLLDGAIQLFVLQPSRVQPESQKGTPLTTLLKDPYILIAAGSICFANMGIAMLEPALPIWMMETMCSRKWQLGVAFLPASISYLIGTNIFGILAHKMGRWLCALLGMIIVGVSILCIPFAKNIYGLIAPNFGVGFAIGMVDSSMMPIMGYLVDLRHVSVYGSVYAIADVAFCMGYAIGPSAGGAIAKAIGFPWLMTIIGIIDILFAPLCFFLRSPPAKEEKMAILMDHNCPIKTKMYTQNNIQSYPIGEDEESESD
Sequence of norepinephrine transporter (NET) (P23975 whole entry, species assumed): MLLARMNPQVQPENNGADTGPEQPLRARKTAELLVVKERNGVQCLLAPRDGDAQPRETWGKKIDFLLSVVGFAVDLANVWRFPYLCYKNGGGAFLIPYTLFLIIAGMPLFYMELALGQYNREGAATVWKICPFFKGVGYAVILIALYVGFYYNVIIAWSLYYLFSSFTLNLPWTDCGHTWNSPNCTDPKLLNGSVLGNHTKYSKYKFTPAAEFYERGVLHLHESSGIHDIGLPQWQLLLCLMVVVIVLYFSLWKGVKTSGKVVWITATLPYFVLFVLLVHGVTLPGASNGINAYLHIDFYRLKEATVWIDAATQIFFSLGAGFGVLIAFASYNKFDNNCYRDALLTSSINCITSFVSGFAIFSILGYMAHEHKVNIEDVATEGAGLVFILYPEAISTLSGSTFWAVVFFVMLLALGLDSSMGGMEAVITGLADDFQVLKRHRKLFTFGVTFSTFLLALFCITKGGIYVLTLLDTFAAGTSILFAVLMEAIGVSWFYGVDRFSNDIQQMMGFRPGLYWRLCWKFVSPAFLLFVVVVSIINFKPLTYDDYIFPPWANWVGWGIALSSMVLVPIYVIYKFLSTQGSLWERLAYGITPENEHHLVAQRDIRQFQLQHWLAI
Sequence of serotonin (5-HT) transporter (SERT) (P31645 whole entry, species assumed): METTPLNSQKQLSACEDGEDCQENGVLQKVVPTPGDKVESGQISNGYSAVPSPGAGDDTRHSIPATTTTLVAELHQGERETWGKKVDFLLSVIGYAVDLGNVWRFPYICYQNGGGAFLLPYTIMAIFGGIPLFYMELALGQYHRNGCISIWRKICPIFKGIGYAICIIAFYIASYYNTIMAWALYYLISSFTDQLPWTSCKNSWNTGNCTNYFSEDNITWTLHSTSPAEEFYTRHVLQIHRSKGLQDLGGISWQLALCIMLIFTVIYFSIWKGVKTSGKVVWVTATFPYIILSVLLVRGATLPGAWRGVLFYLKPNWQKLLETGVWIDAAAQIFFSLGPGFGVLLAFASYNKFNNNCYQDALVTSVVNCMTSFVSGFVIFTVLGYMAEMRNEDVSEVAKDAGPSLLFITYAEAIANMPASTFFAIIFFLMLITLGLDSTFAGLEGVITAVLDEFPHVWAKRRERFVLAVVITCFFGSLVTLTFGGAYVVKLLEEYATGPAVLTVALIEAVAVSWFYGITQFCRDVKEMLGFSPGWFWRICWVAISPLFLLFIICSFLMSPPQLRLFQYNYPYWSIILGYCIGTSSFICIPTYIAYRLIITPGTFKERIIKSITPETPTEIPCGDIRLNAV
Sequence of D2S dopamine receptor (D2S) (P14416 1-414 isoform P14416-2): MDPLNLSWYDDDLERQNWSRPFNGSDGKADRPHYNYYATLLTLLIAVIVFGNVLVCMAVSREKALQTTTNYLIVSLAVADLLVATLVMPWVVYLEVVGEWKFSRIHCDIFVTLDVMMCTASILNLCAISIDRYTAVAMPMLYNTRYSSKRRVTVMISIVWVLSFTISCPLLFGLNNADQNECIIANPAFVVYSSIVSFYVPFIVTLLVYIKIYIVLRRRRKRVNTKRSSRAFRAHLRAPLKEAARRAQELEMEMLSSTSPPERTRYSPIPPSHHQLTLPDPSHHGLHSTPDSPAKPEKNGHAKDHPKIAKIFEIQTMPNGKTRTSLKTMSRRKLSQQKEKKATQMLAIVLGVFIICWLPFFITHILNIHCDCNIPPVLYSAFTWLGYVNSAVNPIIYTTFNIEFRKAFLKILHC
Sequence of dopamine transporter (DAT) (Q01959 whole entry, species assumed): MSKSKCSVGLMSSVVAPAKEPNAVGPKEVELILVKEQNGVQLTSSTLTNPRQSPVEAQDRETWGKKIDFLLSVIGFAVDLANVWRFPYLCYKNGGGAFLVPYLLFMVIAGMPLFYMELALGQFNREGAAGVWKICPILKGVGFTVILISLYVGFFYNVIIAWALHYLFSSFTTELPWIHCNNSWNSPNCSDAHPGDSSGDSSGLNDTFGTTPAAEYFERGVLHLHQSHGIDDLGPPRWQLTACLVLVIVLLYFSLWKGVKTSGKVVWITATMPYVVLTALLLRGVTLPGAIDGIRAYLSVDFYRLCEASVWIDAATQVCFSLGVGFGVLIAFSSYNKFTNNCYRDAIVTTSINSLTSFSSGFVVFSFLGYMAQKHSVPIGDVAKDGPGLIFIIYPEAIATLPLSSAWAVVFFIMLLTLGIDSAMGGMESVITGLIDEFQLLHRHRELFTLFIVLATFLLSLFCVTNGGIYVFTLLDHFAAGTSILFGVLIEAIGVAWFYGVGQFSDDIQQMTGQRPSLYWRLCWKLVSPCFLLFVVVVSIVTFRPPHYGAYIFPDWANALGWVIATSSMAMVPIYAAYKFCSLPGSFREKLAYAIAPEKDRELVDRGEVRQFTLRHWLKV

Row | Compound | inhibition at 10 µM [1] [%] | inhibition at 10 µM [2] [%] | inhibition at 10 µM [3] [%] | inhibition at 10 µM [4] [%] | inhibition at 10 µM [5] [%] | inhibition at 10 µM [6] [%] | inhibition at 10 µM [7] [%] | inhibition at 10 µM [8] [%]
1 | NC(=O)NC(=O)OC[C@H](N)Cc1ccccc1 [Compound 2, D-phenylalaninol allophanate] | 80.6 | 3.4 | 28 | -5.5 | 52.1 | 2.7 | -1 | 11.8
2 | NC(=O)OC[C@H](N)Cc1ccccc1 [APC, (R)-2-amino-3-phenylpropyl carbamate] | 81.4 | 4 | 16.5 | -3.4 | 7.4 | 6.2 | 12 | 18.7
